Square brackets hold non-standard residues; d marks the D form. Peptide text beside a SMILES is read from it. βAla = NCCC(=O)O
Tests used:
[1] = tested on: mice subjected to bilateral renal pedicle clamping; assay: Ischemic AKI by bilateral renal pedicle clamping (BUN, creatinine, survival); type: in vivo, C57BL/6J mice; details: for Renal function (serum BUN): days 1-7 post-ischemia, single i.v. dose 100 μg/g within 3 h after 28 min ischemia, versus control peptide; for Animals surviving severe ischemic AKI: single dose 0-3 hours after releasing clamps; for Animal deaths on day 1 post-AKI / Survival / Total deaths / Animal deaths on day 2 post-AKI / Animal deaths on day 3 post-AKI: n = 8; for Animal deaths on day 1 post-AKI / Animal deaths on day 2 post-AKI / Animal deaths on day 3 post-AKI: 28 min renal ischemia; for Survival: 7 d; for Total deaths: recorded for 7 d
Text: All animals were maintained under the guidance and policies of the Boston University Animal Core facility using National Institutes of Health (NIH) and Institutional Animal Care and Use Committee guidelines. Male and female C57BL/6J mice were purchased from Jackson Laboratory (Bar Harbor, ME), and they were housed and bred at the Boston University Animal Core facility under license number AN-15024. […] Animas were handled in a manner consistent with the NIH guide for their care and use under Institutional Animal Care and Use Committee approval.
Mice were subjected to bilateral renal pedicle clamping after being anesthetized with 2,2,2-tribromoethanol. […] 13,28,29 Slight variation in the clamp time was required to achieve similar degrees of renal dysfunction in the relatively large number of animals studied. The clamp was then removed, and reperfusion was confirmed by visual inspection of the kidneys. Sham ischemia was performed by encircling each renal pedicle with a nonocclusive ligature.
For in vitro testing in primary human PTECs, peptides ([…]) were tested that replicate the Bax domain responsible for binding NPM,34 or two peptides designed to interfere with NPM function were compared with a random nonspecific sequence of the same length (control). Peptides intended to interfere with NPM function overlap key phosphorylation sites located at the NPM amino terminus (peptide 2) or carboxy terminus (peptide 3) detected by mass spectrometry. To improve cell uptake, all peptides contained a cell-penetrating sequence13. For in vivo experiments, a renal-targeting sequence (NLS) was added to enhance renal peptide uptake.35 Peptides were commercially synthesized (Biomatik, Wilmington, DE) J Am Soc Nephrol 30: ccc-ccc, 2018 Nucleophosmin in AKI 3www.jasn.org BASIC RESEARCHas follows: NPM-Bax blocking peptide: Ac-KKKRKV-(bA)-[…]-COOH (SEQ ID NO: 8); peptide 2: AC-PKKKRKV-(bA)-[…]-COOH (SEQ ID NO: 9); and peptide 3: AC-PKKKRKV-(bA)-ESFKK-QEKTPKTPKGPSSVED-IKAK-COOH (SEQ ID NO: 10). […] A total of 42 control and 56 experimental animals were studied.
Transient exposure to metabolic inhibitors replicates ischemia in vivo by activating Bax and causing cell death.13,29,36-38 Cell viability was assayed using a modified colorimetric technique (MTTassay).37 The number of surviving cells is expressed as a percentage of viable control cells detected at baseline. Serum BUN and creatinine levels were measured in tail vein blood samples for 7 days after ischemia using QuantiChrom BUN or creatinine assay kits (BioAssay Systems, Hayward, CA) according to the manufacturer's instructions.

[2] = target: T1, NPM-Bax complex (Homo sapiens, UniProt P06748); assay: NPM-Bax interaction, active Bax immunoprecipitates from PTEC lysates after ATP depletion; type: cell-based; details: for Bax-NPM interaction in renal epithelial cells in vitro: PTEC, 60 min ATP depletion plus 30 min recovery, FIG. 9A
T1 construct: endogenous in cells; host or cells: primary human proximal tubule epithelial cells (PTEC), ATP-depleted
T1 sequence (P06748 whole entry, one chain of several): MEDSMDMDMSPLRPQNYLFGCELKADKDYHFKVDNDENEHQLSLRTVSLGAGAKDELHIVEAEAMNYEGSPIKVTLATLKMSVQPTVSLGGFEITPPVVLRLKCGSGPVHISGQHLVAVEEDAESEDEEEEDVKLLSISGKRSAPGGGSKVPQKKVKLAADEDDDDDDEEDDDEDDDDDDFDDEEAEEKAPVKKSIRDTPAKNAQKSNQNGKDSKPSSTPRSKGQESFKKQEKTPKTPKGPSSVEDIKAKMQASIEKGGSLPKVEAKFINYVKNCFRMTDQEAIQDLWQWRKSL
Method: Similar amounts of Bax were detected in each lane, and input protein amounts for each sample were identical. IB, immunoblot; IP, immunoprecipitation.
Cell, tissue, and urinary proteins were harvested using PD buffer containing 40 mM Tris-HCl, pH 8.0, 500 mM NaCl, 0.1% Nonidet P-40, 6 mM EGTA, and a protease inhibitor cocktail (Set I; Calbiochem, San Diego, CA). NPM was immunoprecipitated overnight with NPM antibodies (catalog no. B0556; Sigma-Aldrich) in the presence of protein A/G-agarose beads at 4° C. NPM accumulation was measured in cytosolic samples extracted with low-dose digitonin ([…]).13 Cytosolic proteins were extracted from renal cortical tissue samples using an extraction kit (Biochain Institute, Newark, CA). Briefly, 50-100 mg of kidney cortex tissue was minced on ice and spin washed with 1 ml ice-cold wash buffer before adding […] of buffer C. The mixture was rotated at 4° C. for 20 minutes and then centrifuged at 18,0003 g at 4° C. for 20 minutes before being harvested. Protein levels were measured with the bicinchoninic acid assay (Thermo Scientific, Rockford, IL).

[3] = tested on: NPM-Bax complex; assay: NPM-Bax complex formation, 6A7 Bax immunoprecipitation and NPM immunoblot in ischemic PTEC; type: cell-based; details: ischemic primary murine PTEC; compared to size matched random peptide
Text: (§1) NPM is a relevant therapeutic target in human AKI. Primary human proximal tubule epithelial cells (PTEC) derived from cadaveric kidneys were subjected to ischemic stress (transient ATP depletion) in the presence of specific NPM siRNA or non-sense siRNA. […] Thus, manipulating NPM is an effective maneuver. […] Small peptides of 30 amino acids or less are sufficiently specific to minimize off target effects and also reduce the risk of eliciting an antibody response that causes tachyphylaxis. Peptides were commercially synthesized and fused to a nuclear localizing sequence (this NLS has no functional relationship to the “NPM NLS” that regulates NPM translocation). The NLS-CPP markedly increases renal accumulation of small peptides8 as well as in the proximal tubule. […] To determine its effect on NPM-Bax complex formation, active Bax was immunoprecipitated from PTEC rendered ischemic with an antibody directed against the 6A7 epitope. The precipitates were subjected to immunoblot analysis using an anti-NPM antibody. […] NPM and Bax accumulation was measured in mitochondria isolated from human PTEC after ischemic stress. […] This is likely due to the prolonged half-life (about 80 hr) of the peptide in vitro and in vivo due to the presence of an AC modification slows degradation.

[4] = tested on: mitochondrial Bax accumulation; assay: NPM and Bax accumulation in mitochondria isolated from PTEC after ischemic stress; type: cell-based; details: mitochondria isolated from human PTEC after ischemic stress
Text: as §1

[5] = 28 min bilateral pedicle clamping

Q: For `CC[C@H](C)[C@H](NC(=O)[C@@H](NC(=O)[C@H](CC(C)C)NC(=O)[C@H](CO)NC(=O)[C@H](C)NC(=O)[C@@H](NC(=O)[C@H](CC(C)C)NC(=O)[C@@H](NC(=O)CNC(=O)[C@H](C)NC(=O)[C@@H](NC(=O)[C@H](Cc1ccccc1)NC(=O)[C@@H](NC(=O)[C@@H](NC(=O)[C@@H](NC(=O)[C@@H](NC(=O)CCNC(=O)[C@@H](NC(=O)[C@H](CCCCN)NC(=O)[C@H](CCCNC(=N)N)NC(=O)[C@H](CCCCN)NC(=O)[C@H](CCCCN)NC(=O)[C@H](CCCCN)NC(C)=O)C(C)C)[C@@H](C)O)C(C)C)[C@@H](C)O)[C@@H](C)CC)C(C)C)C(C)C)[C@@H](C)O)[C@@H](C)O)C(=O)N[C@@H](Cc1c[nH]c2ccccc12)C(=O)N[C@@H](CCCCN)C(=O)N[C@@H](CCCCN)C(=O)N[C@@H](CCSC)C(=O)NCC(=O)O` [Peptide #1] (Ac-KKKRKV[βAla]TVTIFVAGVLTASLTIWKKMG-OH), which Animals surviving ([1]; 22 min bilateral renal ischemia) is on record?
A: 98%

Q: And the Animal survival [1, 5]?
A: all survived

Q: And the “Mean peak BUN” value [1, 5]?
A: 100 m/dl

Q: And the Serum creatinine ([1]; day 1, peptide administered 3 hours after ischemia, versus control)?
A: significantly reduced

Q: And the “Reduction of serum creatinine” value ([1]; day 1 post-ischemia, single dose after 28 min ischemia)?
A: ~50%

Q: And the “Improvement of BUN” value ([1]; days 1-6, IV within 3 hr after 22 min bilateral renal ischemia, versus random peptide)?
A: 15-35%

Q: And the “Renal function (serum BUN)” value ([1]; listed as Blocking peptide)?
A: significantly improved renal function

Q: And the “Renal function (serum BUN)” value ([1]; listed as renal targeted peptide designed to interfere with Bax-NPM complex formation)?
A: significantly lower BUN levels

Q: What about the “Additional protection from higher or repeated dose” value ([1]; dose above 2 mg/animal (7 μM) or second dose within 24 hr, ischemic PTEC or mice) of the same compound?
A: did not provide additional protection

Q: What about the “Protection against lethal renal ischemia (animal survival)” value (shortened to “Protection against lethal renal ischemia”) ([1]; dose administered at 0, 1, 2 or 3 h post-ischemia, listed as Blocking peptide) of the same compound?
A: significant protection

Q: And the “Protection against lethal renal ischemia” value ([1]; dose administered at 0, 1, 2 or 3 h post-ischemia, listed as blocking peptide)?
A: for 7-d post-pedicle clamp release; no deaths were observed after 3 d. Significant protection

Q: What about the “Reduction of AKI severity” value ([1]; mice, administered before the insult) of the same compound?
A: 40-50%

Q: And the “Improvement of kidney function (reduced both BUN and creatinine)” value ([1]; mouse, in vivo)?
A: 50%

Q: What about the “Recovery of renal function” value ([1]; peptide-treated animals) of the same compound?
A: complete

Q: What about the “Time recovery of renal function was sustained” value ([1]; peptide-treated animals) of the same compound?
A: at least 4 weeks

Q: And the “Protection against lethal renal ischemia” value ([1]; same dose administered 4, 5, or 6 h after ischemia, listed as Blocking peptide)?
A: no protection was observed

Q: What about the “Protection against lethal renal ischemia” value ([1]; same dose administered 4, 5, or 6 h after ischemia, listed as blocking peptide) of the same compound?
A: 3 h post-AKI (P, 0.05); the blocking peptide was not protective if administered at 4, 5, or 6 h

Q: And the “Animals surviving severe ischemic AKI” value ([1]; 28 min ischemia, listed as Blocking peptide)?
A: 88%

Q: What about the “Animals surviving severe ischemic AKI” value ([1]; 28 min ischemia, listed as NPM inhibitor peptide) of the same compound?
A: 75%-88%

Q: And the “Animal deaths on day 1 post-AKI” value ([1]; single dose 0 h post-AKI)?
A: 1

Q: What about the Survival ([1]; single dose 0 h post-AKI) of the same compound?
A: 88%

Q: What about the Total deaths ([1]; single dose 0 h post-AKI) of the same compound?
A: 1

Q: What about the “Animal deaths on day 1 post-AKI” value ([1]; single dose 1 h post-AKI) of the same compound?
A: 1

Q: What about the “Animal deaths on day 2 post-AKI” value ([1]; single dose 1 h post-AKI) of the same compound?
A: 1

Q: And the Survival ([1]; single dose 1 h post-AKI)?
A: 75%

Q: And the Total deaths ([1]; single dose 1 h post-AKI)?
A: 2

Q: What about the “Animal deaths on day 2 post-AKI” value ([1]; single dose 2 h post-AKI) of the same compound?
A: 1

Q: What about the Survival ([1]; single dose 2 h post-AKI) of the same compound?
A: 88%

Q: What about the Total deaths ([1]; single dose 2 h post-AKI) of the same compound?
A: 1

Q: What about the “Animal deaths on day 2 post-AKI” value ([1]; single dose 3 h post-AKI) of the same compound?
A: 1

Q: And the Survival ([1]; single dose 3 h post-AKI)?
A: 88%

Q: And the Total deaths ([1]; single dose 3 h post-AKI)?
A: 1

Q: And the “Animal deaths on day 1 post-AKI” value ([1]; single dose 4 h post-AKI)?
A: 1

Q: What about the “Animal deaths on day 2 post-AKI” value ([1]; single dose 4 h post-AKI) of the same compound?
A: 4

Q: And the “Animal deaths on day 3 post-AKI” value ([1]; single dose 4 h post-AKI)?
A: 3

Q: And the Survival ([1]; single dose 4 h post-AKI)?
A: 0%

Q: What about the Total deaths ([1]; single dose 4 h post-AKI) of the same compound?
A: 8

Q: What about the “Animal deaths on day 1 post-AKI” value ([1]; single dose 5 h post-AKI) of the same compound?
A: 1

Q: What about the “Animal deaths on day 2 post-AKI” value ([1]; single dose 5 h post-AKI) of the same compound?
A: 6

Q: What about the Survival ([1]; single dose 5 h post-AKI) of the same compound?
A: 13%

Q: What about the Total deaths ([1]; single dose 5 h post-AKI) of the same compound?
A: 7

Q: And the “Animal deaths on day 1 post-AKI” value ([1]; single dose 6 h post-AKI)?
A: 1

Q: What about the “Animal deaths on day 2 post-AKI” value ([1]; single dose 6 h post-AKI) of the same compound?
A: 4

Q: And the “Animal deaths on day 3 post-AKI” value ([1]; single dose 6 h post-AKI)?
A: 2

Q: And the Survival ([1]; single dose 6 h post-AKI)?
A: 13%

Q: What about the Total deaths ([1]; single dose 6 h post-AKI) of the same compound?
A: 7

Q: And the Animal survival ([1]; single dose within 3 hours postischemia, 28 min ischemia, versus control)?
A: dramatically improved animal survival

Q: What about the “Decrease of NPM-Bax complex formation in vitro” value ([2]; FIG. 9) of the same compound?
A: about 50%

Q: What about the “Bax-NPM interaction in renal epithelial cells in vitro” value (shortened to “Bax-NPM interaction”) [2] of the same compound?
A: markedly decreases

Q: And the “Bax-NPM interaction” value ([2]; listed as Blocking peptide)?
A: markedly reduced

Q: What about the “Bax-NPM interaction” value ([2]; listed as NPM-Bax blocking peptide (Peptide #1)) of the same compound?
A: decreases

Q: And the “Decrease of NPM-Bax complex formation” value [3]?
A: about 50%

Q: And the “Mitochondrial Bax and NPM accumulation” value [4]?
A: decreased mitochondrial Bax accumulation to a greater extent than it reduced NPM accumulation

— patent US12018058B2, “Compositions and methods for diagnosing and/or treating kidney injury” (Boston Medical Center Corporation, priority 2018, dated 2024)
